Key:
KAI3 = assay: drug sensitivity score (viability inhibition); higher = more sensitive; details: 72 h; IL2 2.5 ng/ml
Procedure, shortened: (§1)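 NK cell lines were plated at 3 000 cells/well into 384-well drug plates with 5-8 concentrations across a 10 000-fold range, in complete RPMI with 2.5 ng/ml IL2. Viability was read with CellTiter-Glo after 72 h at 37 °C, 5% CO2. The drug sensitivity score used here is an optimized area under the dose-response curve.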

KHYG-1 = assay: as above; details: 72 h; IL2 2.5 ng/ml
Procedure, shortened: as §1

NK-92 = assay: as above; details: 72 h; IL2 2.5 ng/ml
Procedure, shortened: as §1

NK-YS = assay: as above; details: 72 h; IL2 2.5 ng/ml
Procedure, shortened: as §1

NKL = assay: as above; details: 72 h; IL2 2.5 ng/ml
Procedure, shortened: as §1

SNK6 = assay: as above; details: 72 h; IL2 2.5 ng/ml
Procedure, shortened: as §1

YT = assay: as above; details: 72 h; IL2 2.5 ng/ml
Procedure, shortened: as §1

HEK293-SIE STAT3 WT = assay: drug sensitivity score (inhibition of STAT3 luciferase reporter); higher = stronger inhibition; details: 6 h; STAT3: WT; IL6 100 ng/ml
Procedure, shortened: (§2)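 Scores are optimized areas under reporter-inhibition dose-response curves. They come from HEK293 cells with a STAT3-driven sis-inducible element luciferase reporter and lentivirally introduced wild-type or mutant STAT3, plated at 10 000 cells/well in 384-well plates, with IL6 (100 ng/ml) given to wild-type cells only. After 6 h with drug at 5-8 concentrations across a 10 000-fold range, luciferase was read with ONE-Glo, and results from two experiments were averaged.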

HEK293-SIE STAT3 Y640F = assay: as above; details: 6 h; IL6 0 ng/ml
Procedure, shortened: as §2

Compound	drug sensitivity score (KAI3) [DSS]	drug sensitivity score (KHYG-1) [DSS]	drug sensitivity score (NK-92) [DSS]	drug sensitivity score (NK-YS) [DSS]	drug sensitivity score (NKL) [DSS]	drug sensitivity score (SNK6) [DSS]	drug sensitivity score (YT) [DSS]	drug sensitivity score (HEK293-SIE STAT3 WT) [DSS]	drug sensitivity score (HEK293-SIE STAT3 Y640F) [DSS]
FC(F)c1nc2ccccc2n1-c1nc(N2CCOCC2)nc(N2CCOCC2)n1 [ZSTK474]	5.42	2.23	12.8	9.54	9.94	7.75	7.9	2.77	4.7
COC(=O)C[C@](O)(CCCC(C)(C)O)C(=O)O[C@@H]1C(OC)=C[C@]23CCCN2CCc2cc4c(cc2[C@H]13)OCO4 [homoharringtonine]	33.4	29.6	31.2	32.5	32.2	34.6	34.5	39	36.6

Reference: the supplement of paper PMC5722580
